Data taken from patent publication US9681664B2, “Macrocyclic picolinamides as fungicides” (Dow Agrosciences LLC, priority 2012, dated 2017).
Read-outs that look alike come from different tables or passages of the source.

Key:
Format in all cases: in vivo
[1] = system: Blumeria graminis f. sp. hordei; Synonym: Erysiphe graminis f. sp. hordei; assay: Barley powdery mildew (ERYSGH) disease control; settings: 24 h, 1 Day Protectant, high volume, read-out: Disease Control ERYSGH 1 DP
Experimental: (§1) Technical grades of materials were dissolved in acetone, which were then mixed with nine volumes of water containing 110 ppm Triton X-100. The fungicide solutions were applied onto wheat seedlings using an automated booth sprayer to run-off. All sprayed plants were allowed to air dry prior to further handling. All fungicides were evaluated using the aforementioned method for their activity vs. all target diseases. Wheat leaf blotch and brown rust activity were also evaluated using track spray applications, in which case the fungicides were formulated as EC formulations, containing 0.1% Trycol 5941 in the spray solutions. Barley seedlings (variety Harrington) were propagated in soil-less Metro mix, with each pot having 8 to 12 plants, and used in the test when first leaf was fully emerged. Test plants were inoculated by dusting with infected stock plants 24 hr after fungicide treatments. After inoculation the plants were kept in a greenhouse set at 20° C. for disease to develop. Fungicide formulation, application and disease assessment on the sprayed leaves followed the procedures as described in the Example A.

Alternaria solani = assay: Tomato early blight (ALTESO) disease control; settings: 24 h, 1 Day Protectant, high volume, read-out: Disease Control ALTESO 1 DP
Experimental: Technical grades of materials were dissolved in acetone, which were then mixed with nine volumes of water containing 110 ppm Triton X-100. The fungicide solutions were applied onto wheat seedlings using an automated booth sprayer to run-off. All sprayed plants were allowed to air dry prior to further handling. All fungicides were evaluated using the aforementioned method for their activity vs. all target diseases. Wheat leaf blotch and brown rust activity were also evaluated using track spray applications, in which case the fungicides were formulated as EC formulations, containing 0.1% Trycol 5941 in the spray solutions. Tomato plants (variety Outdoor girl) were propagated in soil-less Metro mix, with each pot having one plant, and used when 12 to 14 days old. Test plants were inoculated with an aqueous spore suspension of Alternaria solani 24 hr after fungicide treatments. After inoculation the plants were kept in 100% relative humidity (one day in a dark dew chamber followed by two to three days in a lighted dew chamber at 20° C.) to permit spores to germinate and infect the leaf. The plants were then transferred to a growth room at 22° C. for disease to develop. Fungicide formulation, application and disease assessment on the sprayed leaves followed the procedures as described in the Example A.

[2] = system: Magnaporthe grisea; Anamorph: Pyricularia oryzae; assay: whole plant or invertebrate; settings: 24 h, read-out: PYRIOR 1 DP disease control
Phakopsora pachyrhizi = assay: Asian soybean rust (PHAKPA) disease control; settings: topical, high volume
In short: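 Compounds in acetone diluted with nine volumes water containing 0.011% Tween 20, sprayed to run-off on two-week-old Williams 82 soybean seedlings, inoculated 3 days before or 1 day after treatment. Plants held 24 h in dark dew room at 22 °C, 100% RH, then at 23 °C; disease severity scored on sprayed leaves.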

Cercospora beticola = assay: Leaf spot of sugar beets (CERCBE) disease control; settings: 24 h, 1 Day Protectant, high volume, read-out: Disease Control CERCBE 1 DP
Experimental: Technical grades of materials were dissolved in acetone, which were then mixed with nine volumes of water containing 110 ppm Triton X-100. The fungicide solutions were applied onto wheat seedlings using an automated booth sprayer to run-off. All sprayed plants were allowed to air dry prior to further handling. All fungicides were evaluated using the aforementioned method for their activity vs. all target diseases. Wheat leaf blotch and brown rust activity were also evaluated using track spray applications, in which case the fungicides were formulated as EC formulations, containing 0.1% Trycol 5941 in the spray solutions. Sugar beet plants (variety HH88) were grown in soil-less Metro mix and trimmed regularly to maintain a uniform plant size prior to test. Plants were inoculated with a spore suspension 24 hr after fungicide treatments. Inoculated plants were kept in a dew chamber at 22° C. for 48 hr then incubated in a greenhouse set at 24° C. under a clear plastic hood with bottom ventilation until disease symptoms were fully expressed. Fungicide formulation, application and disease assessment on the sprayed leaves followed the procedures as described in the Example A.

Rhyncosporium secalis = assay: Barley scald (RHYNSE) disease control; settings: 24 h, High volume application, 1 Day Protectant, read-out: RHYNSE 1 DP disease control
Experimental: as §1, with “inoculated by an aqueous spore suspension of Rhyncosporium secalis 24 hr” for “inoculated by dusting with infected stock plants 24 hr”, “kept in a dew room at 20° C. with 100% relative humidity for 48 hr. The plants were then transferred to a greenhouse” for “kept in a greenhouse”

[3] = system: Mycosphaerella graminicola; Anamorph: Septoria tritici; assay: Leaf blotch of wheat (SEPTTR) disease control on wheat seedlings; settings: Zymoseptoria tritici, High volume application, 100 ppm
In short: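 Protective or curative format: Septoria tritici inoculation either preceded or followed fungicide application to first-leaf Yuma wheat. Severity scored 0–100%; control expressed versus untreated.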

[4] = 24 h, 1 Day Protectant, read-out: Disease Control PHAKPA 1DP
[5] = 72 h, 3 Day Curative, read-out: Disease Control PHAKPA 3DC
[6] = 24 h, 1 Day Protectant, read-out: SEPTTR 1DP disease control
[7] = 72 h, 3 Day Curative, read-out: SEPTTR 3DC disease control

| SMILES | pest or weed control at 100 ppm [1] [%] | pest or weed control at 100 ppm (Alternaria solani) [%] | pest or weed control at 100 ppm [2] [%] | pest or weed control at 25 ppm (Phakopsora pachyrhizi; [4]) [%] | pest or weed control at 25 ppm (Phakopsora pachyrhizi; [5]) [%] | pest or weed control at 100 ppm (Cercospora beticola) [%] | pest or weed control at 100 ppm (Rhyncosporium secalis) [%] | pest or weed control at 100 ppm [3, 6] [%] | pest or weed control at 100 ppm [3, 7] [%] |
| --- | --- | --- | --- | --- | --- | --- | --- | --- | --- |
| CCCO[C@H]1CCC[C@H](NC(=O)c2nccc(OC)c2OC(C)=O)C(=O)O[C@@H](C)[C@@H]1Oc1ccccc1 [F141] | 80 to 100 | 80 to 100 | 80 to 100 | 80 to 100 | 80 to 100 | 80 to 100 | 80 to 100 | 80 to 100 | 80 to 100 |
| CCCO[C@H]1CCC[C@H](NC(=O)c2nccc(OC)c2OCOC(=O)C(C)C)C(=O)O[C@@H](C)[C@@H]1OC1CCCC1 [F154] | 80 to 100 | 80 to 100 | 80 to 100 | 80 to 100 | 80 to 100 | 80 to 100 | 80 to 100 | 80 to 100 | 80 to 100 |
| CCCO[C@H]1CCC[C@H](NC(=O)c2nccc(OC)c2OCOC(C)=O)C(=O)O[C@@H](C)[C@@H]1OC1CCCC1 [F155] | 80 to 100 | 80 to 100 | 80 to 100 | 80 to 100 | 80 to 100 | 80 to 100 | 0 to 80 | 80 to 100 | 80 to 100 |
| COc1ccnc(C(=O)N[C@H]2CCC[C@H](OC3CCCC3)[C@@H](OCCCc3ccccc3)[C@H](C)OC2=O)c1OCOC(C)=O [F165] | 0 to 80 | 80 to 100 | 80 to 100 | 80 to 100 | 0 to 80 | 80 to 100 | 80 to 100 | 80 to 100 | 80 to 100 |
| CCCCCO[C@H]1[C@H](C)OC(=O)[C@@H](NC(=O)c2nccc(OC)c2OCOC(C)=O)CCC[C@@H]1OC1CCCC1 [F166] | 80 to 100 | 80 to 100 | 80 to 100 | 80 to 100 | 80 to 100 | 80 to 100 | 80 to 100 | 80 to 100 | 80 to 100 |
| COc1ccc(O[C@H]2CCC[C@H](NC(=O)c3nccc(OC)c3OCOC(C)=O)C(=O)O[C@@H](C)[C@@H]2OC2CCCC2)cc1 [F170] | 0 to 80 | 80 to 100 | 80 to 100 | 80 to 100 | 0 to 80 | 80 to 100 | 80 to 100 | 80 to 100 | 80 to 100 |
| COc1ccnc(C(=O)N[C@H]2CCC[C@H](OCCCC(F)(F)F)[C@@H](OC3CCCC3)[C@H](C)OC2=O)c1OCOC(C)=O [F172] | 0 to 80 | 80 to 100 | 80 to 100 | 80 to 100 | 80 to 100 | 80 to 100 | 80 to 100 | 80 to 100 | 80 to 100 |
